Here are results for four compounds from PMC10350924, “Design, Synthesis, and Pharmacological Characterization of a Potent Soluble Epoxide Hydrolase Inhibitor for the Treatment of Acute Pancreatitis” (Journal of Medicinal Chemistry, 2023).

The structures appear in SMILES notation. Some results are limits rather than exact numbers.

What is called IC50 is the concentration needed to halve the response being measured.

For experiment [1], the system named is cerulein-induced acute pancreatitis. Put plainly: Cerulein-induced acute pancreatitis in mice. Type of experiment: in vivo. The note with it: 10 mg/kg i.p. 0.5 and 2.5 h after first cerulein injection; 6 h. As to the method: Male CD-1 mice (33–39 g, 8 weeks, Charles River Laboratories; Calco, Italy) were fed with standard rodent chow and water and acclimated for 4 days at a 12 h light and 12 h dark schedule in a constant air-conditioned environment (21 ± 2 °C). The mice were randomly assigned to groups, and experiments were carried out during the light phase. Experimental procedures were conducted in conformity with Italian (D.L. 26/2014) and European (directive 2010/63/EU) regulations on the protection of animals used for scientific purposes and approved by the Italian Ministry. Acute pancreatitis (AP) was induced in mice by intraperitoneal (i.p.) injections of cerulein (50 μg/kg) hourly (5 times).[56] The groups were: (a) Sham group which received saline i.p. hourly (×5); […] The mice were killed 6 h after the first cerulein injection. Blood samples were obtained by direct intracardiac puncture. Pancreases and lungs were removed immediately, frozen, and stored at −80 °C until assayed. Portions of these organs were also fixed in formaldehyde for histological and immunohistochemical examination. Pancreas and lung sections (6 μm) were stained for hematoxylin & eosin (H&E). Evaluation of pancreas edema and inflammation signs were performed with a three-point scoring system. […] Analysis was performed in a blinded manner. Evaluation of lung edema and inflammatory infiltration was performed with three-point scoring system: 0, absent; 1, mild; 2, moderate; 3, severe. […] Tissue sections were then incubated with normal goat serum (Vector Laboratories, Newark, California) for 20 min to reduce nonspecific antibody interactions. Sections were incubated with primary antibody diluted in 0.01 M PBS, 2.5% normal serum (anti-Neutrophils rat monoclonal antibody, dilution 1:100, Abcam) for 30 min. After rinsing with PBS 0.01 M for 5 min, slides were incubated with biotinylated goat anti-rat IgG (Vector Laboratories, Newark, California), diluted 1:200, for 30 min. After rinsing with PBS 0.01 M for 5 min, slides were incubated with VECTASTAIN ABC Reagent (Vector Laboratories, Newark, California) for 30 min. Color development was performed using […] 3,3′-diaminobenzidine solution (Sigma-Aldrich, Milan, Italy), and sections were analyzed using Leica Microsystem with a magnification of 20x. Semiquantitative determination of protein expression was obtained with ImageJ/Fiji software. Liver injury was assessed by measuring the rise in plasma levels of alanine aminotransferase (ALT, a specific marker for hepatic parenchymal injury) and aspartate aminotransferase (AST, a nonspecific marker for hepatic injury) 6 h after cerulein injection by a clinical laboratory. Results are expressed in international units per milliliter.

The next experiment has as its system sEH. Conditions: cited from earlier work.
A further experiment has as its target T1, Human recombinant sEH (Homo sapiens, UniProt P34913).
T1 construct: made in house; host or cells: Sf9 insect cells (recombinant baculovirus)
T1 sequence (P34913 1-555): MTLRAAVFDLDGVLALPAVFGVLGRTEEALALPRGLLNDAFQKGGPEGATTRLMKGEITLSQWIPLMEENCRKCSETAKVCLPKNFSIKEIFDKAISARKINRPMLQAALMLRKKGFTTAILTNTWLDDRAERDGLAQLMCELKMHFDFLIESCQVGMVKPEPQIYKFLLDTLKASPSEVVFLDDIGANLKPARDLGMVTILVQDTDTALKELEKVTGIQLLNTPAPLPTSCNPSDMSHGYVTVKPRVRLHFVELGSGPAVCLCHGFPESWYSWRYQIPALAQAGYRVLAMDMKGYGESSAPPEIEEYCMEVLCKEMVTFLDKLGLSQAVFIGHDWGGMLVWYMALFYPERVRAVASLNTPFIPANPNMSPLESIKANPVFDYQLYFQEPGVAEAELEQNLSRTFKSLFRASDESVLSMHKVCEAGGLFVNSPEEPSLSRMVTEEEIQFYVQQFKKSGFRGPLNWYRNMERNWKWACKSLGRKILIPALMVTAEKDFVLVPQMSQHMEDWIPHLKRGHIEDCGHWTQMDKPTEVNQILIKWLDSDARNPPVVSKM
Put plainly: Cell-free sEH activity (PHOME fluorescence). Type of experiment: biochemical. Conditions: human isolated sEH. As to the method: Human recombinant sEH was expressed in Sf9 insect cells and purified by affinity chromatography. […] Elution with 4-fluorochalcone oxide in PBS pH 7.4 with 1 mM dithiothreitol and 1 mM EDTA yielded sEH, which was dialyzed and concentrated. Purified sEH (60 ng) in 25 mM Tris HCl pH 7 with 0.1 mg/mL bovine serum albumin (BSA) was preincubated with the vehicle (DMSO) or test compounds for 1 min at room temperature. The sEH substrate PHOME (20 μM, Cayman Chemicals) was added to start the enzymatic reaction, which was stopped after 60 min in the dark by the addition of ZnSO4 (200 mM).

The target in experiment [2] is T2, 5-LOX (Homo sapiens, UniProt P09917).
T2 sequence (P09917 1-674): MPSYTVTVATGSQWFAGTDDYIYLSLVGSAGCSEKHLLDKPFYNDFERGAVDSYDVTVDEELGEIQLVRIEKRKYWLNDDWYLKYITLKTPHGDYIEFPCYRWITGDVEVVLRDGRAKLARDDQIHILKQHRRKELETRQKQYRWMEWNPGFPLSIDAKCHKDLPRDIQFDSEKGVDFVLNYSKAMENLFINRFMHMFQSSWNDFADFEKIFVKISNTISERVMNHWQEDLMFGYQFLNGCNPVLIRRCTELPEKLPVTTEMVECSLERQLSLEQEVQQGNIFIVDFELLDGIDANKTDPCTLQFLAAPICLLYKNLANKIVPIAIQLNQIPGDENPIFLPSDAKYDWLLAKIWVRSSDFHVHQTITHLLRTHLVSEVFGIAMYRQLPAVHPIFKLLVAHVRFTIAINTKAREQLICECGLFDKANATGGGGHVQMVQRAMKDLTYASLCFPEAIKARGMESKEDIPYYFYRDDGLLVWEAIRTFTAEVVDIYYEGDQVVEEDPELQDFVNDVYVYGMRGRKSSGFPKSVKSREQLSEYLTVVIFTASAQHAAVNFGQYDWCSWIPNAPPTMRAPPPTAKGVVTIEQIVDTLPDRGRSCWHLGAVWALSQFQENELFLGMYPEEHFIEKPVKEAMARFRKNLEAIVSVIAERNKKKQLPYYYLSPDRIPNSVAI
Put plainly: Cell-free 5-LOX activity assay. Type of experiment: biochemical. Also on record: made in house; host or cells: Escherichia coli Bl21 (DE3). The note with it: human isolated 5-LOX. As to the method:
Human recombinant 5-LOX was expressed in Escherichia coli Bl21 (DE3) cells that were transformed with the plasmid pT3-5LO (wt 5-LOX) and purified on an adenosine triphosphate (ATP)-agarose column by affinity chromatography.[40],[41] In a first step, E. coli was lysed in 50 mM triethanolamine/HCl pH 8.0 with ethylenediamine tetraacetic acid (EDTA) (5 mM), soybean trypsin inhibitor (60 μg/mL), phenylmethanesulfonyl fluoride (1 mM), dithiothreitol (1 mM), and lysozyme (1 mg/mL) and sonicated 3 times for 15 s. The homogenate was centrifuged at 40,000g for 20 min at 4 °C. The supernatant was transferred to an ATP-agarose column (Sigma-Aldrich, Deisenhofen, Germany), which was sequentially washed with phosphate-buffered saline (PBS) pH 7.4, 1 mM EDTA, 50 mM phosphate buffer pH 7.4, 0.5 M NaCl, 1 mM EDTA, and finally 50 mM phosphate buffer pH 7.4 plus 1 mM EDTA. The enzyme was eluted with 50 mM phosphate buffer pH 7.4, 1 mM EDTA, and 20 mM ATP.
5-LOX product formation was started by the addition of 20 μM arachidonic acid (Sigma-Aldrich) and CaCl2 (2 mM) and stopped by the addition of an equal volume of ice-cold methanol containing PGB1 (200 ng) as internal standard after 10 min at 37 °C.

Experiment [3] deals with T2, 5-LOX. In words: 5-LOX product formation in human activated PMNL (A23187). Type of experiment: cell-based. On the set-up: Freshly isolated PMNL (5 × 10^6) suspended in PBS pH 7.4 with 1 mg/mL glucose were preincubated with the test compounds; endogenous in cells; host or cells: human PMNL from donor blood; remaining activity: dose or concentration left out as unconfirmed. Conditions: for remaining activity at 10 µM: read-out: 5-LOX residual activity in PMNL (%) at 10 μM; for remaining activity: PMNL, read-out: 5-LO residual activity in PMNL (%). The protocol: Human PMNL were freshly isolated from leukocyte concentrates that were obtained from the Institute for Transfusion Medicine of the University Hospital Jena (Germany). […] These volunteers regularly donated blood (every 8–12 weeks) and were physically inspected by a clinician. […] Leukocytes were concentrated by centrifugation (4000g/20 min/20 °C) of freshly withdrawn blood. […] PMNL were obtained from the cell pellet. […] The reaction was stopped with an equal volume of methanol containing PGB1 (200 ng) as internal standard. Major 5-LOX products (all-trans isomers of LTB and 5-HETE, and additionally LTB4) were extracted and analyzed by RP-HPLC as described for the determination of cell-free 5-LOX activity.

For `O=C(O)CCCCCCCCCCCNC(=O)NC12CC3CC(CC(C3)C1)C2` [AUDA, reference compound], the “pancreatic injury (edema, cell infiltration, neutrophil numbers)” value in experiment [1] is listed as “reduced pancreatic injury”.
Consider `O=C(Nc1ccc2c(c1)CCN2Cc1ccc(F)cc1)NC1CCCCC1` [Compound 53], for which the “sEH inhibitory potency in words (Figure 1)” value in the experiment with sEH is listed as “high sEH inhibitory potency”.
With `COC(=O)CCCn1ccc2cc(NC(=O)NCC34C[C@H]5C[C@@H](C3)C[C@@H](C4)C5)ccc21` [Compound 32, Methyl 4-(5-(3-(((3R,5R,7R)-Adamantan-1-yl)methyl)ureido)-1H-indol-1-yl)butanoate], the IC50 on Human recombinant sEH is 21.3 ± 11.9 nM; against 5-LOX [2], greater than 1000 nM; against 5-LOX [3] (human activated PMNL), 6.83 ± 0.84 µM. The remaining activity at 10 µM at 5-LOX [3] (human activated PMNL) is 30.1 ± 4.8%. Besides, on 5-LOX [3], the remaining activity worked out at 30.1 ± 4.8%.
`O=C(NCC12C[C@H]3C[C@@H](C1)C[C@@H](C2)C3)Nc1ccc2c(ccn2-c2ccc(F)cc2)c1` [Compound 45, 1-(((3R,5R,7R)-Adamantan-1-yl)methyl)-3-(1-(4-fluorophenyl)-1H-indol-5-yl)urea]: the values for the IC50 on Human recombinant sEH and at 5-LOX [2] were 4.4 ± 0.5 nM and greater than 1000 nM, respectively. For the same compound, on 5-LOX [3] (human activated PMNL), the remaining activity at 10 µM was found to be 80.9 ± 1.7%. For the same compound, on 5-LOX [3], the remaining activity stood at 80.9 ± 1.7%.
